Test results reported in ChEMBL document CHEMBL1201862, “PubChem BioAssay data set” (2004).
The source made the active and inactive calls.

Legend:
HeLa = assay: HeLa cell cytotoxicity, dose response, cytotoxicity control, ATP luminescence, cherry-pick samples (AID 687004); assay type: functional, cell-based; conditions: Homo sapiens
[1] = HEK293 Cytotoxicity Assay Measured in Cell-Based System Using Plate Reader - 7071-01_Inhibitor_Dose_CherryPick_Activity_Set2.; assay type: functional
HEK293 = assay: HEK293T cell cytotoxicity, dose response, cytotoxicity control, ATP luminescence, cherry-pick samples (AID 687005); assay type: functional, cell-based; conditions: Homo sapiens;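 also: cells exposed to compound for 48 hours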
Cryptococcus neoformans = assay: PubChem AID 686997; assay type: functional, organism-based
[2] = non-specific cell cytotoxicity, dose response, cytotoxicity control for PAX8 inhibitor project, plate reader, dry powder samples (AID 743021); assay type: functional, cell-based
Paired box protein Pax-8 = Paired box protein Pax-8 (Homo sapiens, UniProt Q06710); assay: inhibitors of PAX8-driven TPO luciferase reporter, dose response, RMG-I cells, cherry-pick (AID 687027); assay type: functional, cell-based;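 also: luciferase reporter driven by Pax8 target thyroperoxidase promoter measured by SteadyGlo luminescence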
[3] = cytotoxicity in OVCAR8 ovarian cancer cells, dose response, PAX8 project, cell-based, plate reader, dry powder samples (AID 743197); assay type: functional; conditions: OVCAR-8
[4] = A2780 ovarian cancer cell cytotoxicity, dose response, cytotoxicity control, plate reader, dry powder samples (AID 743046); assay type: functional, cell-based
[5] = IOSE-T80 ovarian epithelial cell cytotoxicity, dose response, cytotoxicity control for PAX8 inhibitor project, plate reader, dry powder samples (AID 743045); assay type: functional, cell-based
[6] = inhibitors of CMV-promoter luciferase reporter, dose response, counter-screen for Pax8 inhibitor project, cell-based, HEK293, luminescence, dry powder (AID 743020); assay type: functional
[7] = NIH:OVCAR-3 ovarian cancer cell cytotoxicity, dose response, PAX8 inhibitor project, plate reader, dry powder samples (AID 743044); assay type: functional, cell-based
[8] = DNA binding of candidate compounds, dose response, artefact control for RAD54 inhibitor project, biochemical, fluorescence polarization, cherry-pick (AID 651673); assay type: functional
[9] = molecular target: T1, DNA repair protein RAD52 homolog (Homo sapiens, UniProt P43351); assay type: functional, biochemical
T1 sequence (P43351 whole entry): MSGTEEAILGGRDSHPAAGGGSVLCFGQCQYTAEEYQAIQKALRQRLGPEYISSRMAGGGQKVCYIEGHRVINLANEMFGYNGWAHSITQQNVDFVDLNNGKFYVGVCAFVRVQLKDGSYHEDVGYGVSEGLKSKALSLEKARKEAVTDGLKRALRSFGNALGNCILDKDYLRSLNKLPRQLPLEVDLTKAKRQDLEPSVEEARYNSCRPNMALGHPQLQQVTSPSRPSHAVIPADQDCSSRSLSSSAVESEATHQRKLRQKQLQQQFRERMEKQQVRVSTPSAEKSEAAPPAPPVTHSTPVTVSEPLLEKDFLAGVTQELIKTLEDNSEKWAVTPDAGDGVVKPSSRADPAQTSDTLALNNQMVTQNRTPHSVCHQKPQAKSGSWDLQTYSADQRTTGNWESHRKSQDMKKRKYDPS

[10] = molecular target: T2, DNA repair and recombination protein RAD54-like (Homo sapiens, UniProt Q92698); assay: inhibitors of human RAD54 branch migration, confirmation, biochemical, fluorescence, cherry-picked samples, dose series (AID 651657); assay type: functional
T2 sequence (Q92698 whole entry): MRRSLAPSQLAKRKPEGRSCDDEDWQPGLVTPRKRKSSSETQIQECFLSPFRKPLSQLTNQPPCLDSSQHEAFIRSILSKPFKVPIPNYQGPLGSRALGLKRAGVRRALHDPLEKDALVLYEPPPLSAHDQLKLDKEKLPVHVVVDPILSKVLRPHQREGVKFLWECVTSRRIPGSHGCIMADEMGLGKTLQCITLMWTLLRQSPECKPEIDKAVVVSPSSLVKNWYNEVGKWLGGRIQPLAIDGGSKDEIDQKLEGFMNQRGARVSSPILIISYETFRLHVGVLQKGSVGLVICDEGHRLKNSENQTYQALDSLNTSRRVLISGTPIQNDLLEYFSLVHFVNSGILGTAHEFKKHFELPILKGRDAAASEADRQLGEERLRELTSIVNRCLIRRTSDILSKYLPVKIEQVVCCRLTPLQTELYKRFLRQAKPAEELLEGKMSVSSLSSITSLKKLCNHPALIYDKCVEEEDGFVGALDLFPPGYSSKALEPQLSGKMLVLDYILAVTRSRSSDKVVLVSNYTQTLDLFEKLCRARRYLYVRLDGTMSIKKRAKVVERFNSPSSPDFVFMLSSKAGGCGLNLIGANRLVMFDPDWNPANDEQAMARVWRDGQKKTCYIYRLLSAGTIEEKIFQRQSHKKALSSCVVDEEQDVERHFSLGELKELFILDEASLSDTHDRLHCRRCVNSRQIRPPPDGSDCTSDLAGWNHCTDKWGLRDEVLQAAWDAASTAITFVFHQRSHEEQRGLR

Protein Wnt-3a = Protein Wnt-3a (Mus musculus, UniProt P27467); assay: SAR analysis of small molecule antagonists of Gli-SUFU in a Wnt3a luminescent reporter assay.; assay type: functional
[11] = T. cruzi growth inhibition in host cells, dose response, cell-based, plate reader, dry powder, set 2 (AID 652275); assay type: functional
[12] = T. cruzi intracellular amastigote growth inhibition, dose response, imaging, CA-I/72 strain, bovine embryo skeletal muscle, dry powder (AID 651885); assay type: functional, cell-based
[13] = A549 cell cytotoxicity, dose response, cytotoxicity control, plate reader, cherry-pick, antagonist series (AID 743412); assay type: functional, cell-based
[14] = LGR2 antagonists, dose response, cell-based, HEK293, CRE-luciferase reporter, cherry pick (AID 743342); assay type: functional
[15] = MC4R antagonists, dose response, counter-screen for LGR2 antagonist project, cell-based, plate reader, cherry pick (AID 743444); assay type: functional;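 also: transfected HEK 293 cells stimulated with alpha-MSH peptide; potency of inhibitors of the alpha-MSH evoked signal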
[16] = Cytotoxicity screening for potential Inhibitors of Bacterial Capsule Biogenesis (4).; assay type: functional

Sequence of Paired box protein Pax-8 (Q06710 whole entry): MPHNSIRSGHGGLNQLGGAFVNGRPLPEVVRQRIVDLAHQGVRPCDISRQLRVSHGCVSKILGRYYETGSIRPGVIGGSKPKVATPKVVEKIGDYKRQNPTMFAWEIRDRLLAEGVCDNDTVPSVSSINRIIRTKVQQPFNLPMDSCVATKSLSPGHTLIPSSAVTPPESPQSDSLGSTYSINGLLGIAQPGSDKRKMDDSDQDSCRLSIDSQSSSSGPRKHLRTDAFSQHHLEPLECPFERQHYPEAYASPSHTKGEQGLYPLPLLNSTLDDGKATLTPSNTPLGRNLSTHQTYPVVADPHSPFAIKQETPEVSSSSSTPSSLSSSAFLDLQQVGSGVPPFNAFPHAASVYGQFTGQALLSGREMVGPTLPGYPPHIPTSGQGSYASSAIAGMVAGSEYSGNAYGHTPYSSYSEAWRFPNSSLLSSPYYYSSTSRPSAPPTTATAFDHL
Sequence of Protein Wnt-3a (P27467 whole entry): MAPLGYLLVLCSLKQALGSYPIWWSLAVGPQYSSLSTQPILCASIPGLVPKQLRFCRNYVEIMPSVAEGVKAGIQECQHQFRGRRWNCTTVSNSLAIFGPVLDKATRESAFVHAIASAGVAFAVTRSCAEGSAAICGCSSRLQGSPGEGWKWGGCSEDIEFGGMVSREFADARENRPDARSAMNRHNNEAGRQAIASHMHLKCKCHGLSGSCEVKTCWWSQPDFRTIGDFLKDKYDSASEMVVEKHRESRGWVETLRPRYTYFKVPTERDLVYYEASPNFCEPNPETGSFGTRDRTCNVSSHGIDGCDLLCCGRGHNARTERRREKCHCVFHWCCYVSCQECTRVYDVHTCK

Question: Which AC50 (HeLa) does the source give for `O=S(=O)(c1ccc(F)cc1)N1C[C@@H]2[C@H](c3ccccc31)[C@@H](CO)N2Cc1ccccc1Cl` here?
Answer: > 47 µM (inactive)

Question: And the AC50 [1]?
Answer: 18.9 µM (active)

Question: What about the AC50 (HEK293) of the same compound?
Answer: 18.9 µM (active)

Question: For `COC(=O)C1=C(C)N(Cc2ccc(F)cc2)C(=S)NC1c1cccc(Br)c1` (stereo not drawn), which AC50 (Cryptococcus neoformans) is on record?
Answer: 36.7 µM (active)

Question: What about the AC50 [1] of the same compound?
Answer: 6.17 µM (active)

Question: What about the AC50 (HEK293) of the same compound?
Answer: 6.17 µM (active)

Question: For `C[C@@H]1CN([C@H](C)CO)C(=O)c2cc(NC(=O)Nc3ccccc3)ccc2O[C@@H](C)CCCCO[C@@H]1CN(C)Cc1ccc(Cl)c(Cl)c1`, which AC50 [2] is on record?
Answer: 52.3 µM (active)

Question: What about the AC50 (Paired box protein Pax-8) of the same compound?
Answer: 4.45 µM (active)

Question: And the AC50 [3]?
Answer: 29.6 µM (active)

Question: What about the AC50 [4] of the same compound?
Answer: 14.9 µM (active)

Question: What about the AC50 [5] of the same compound?
Answer: 44.5 µM (active)

Question: What about the AC50 [6] of the same compound?
Answer: 43.4 µM (active)

Question: And the AC50 [7]?
Answer: 18.4 µM (active)

Question: For `c1cncc(Nc2c3ccccc3nc3ccccc23)c1`, which AC50 [8] is on record?
Answer: 49.5 µM (active)

Question: What about the AC50 [9] of the same compound?
Answer: 7.23 µM (active)

Question: What about the AC50 [10] of the same compound?
Answer: 12.8 µM (active)

Question: With `CC(C)CNc1cc(NC(=O)c2cccc(F)c2)ncn1` as the compound, how does the IC50 (Protein Wnt-3a) read?
Answer: > 21.8 µM (inactive)

Question: For `C[C@@H]1CN([C@@H](C)CO)C(=O)c2cc(-c3cncnc3)cnc2O[C@H]1CN(C)Cc1ccc(Oc2ccccc2)cc1`, which AC50 [11] is on record?
Answer: 0.403 µM (active)

Question: What about the IC50 [12] of the same compound?
Answer: > 20 µM (inactive)

Question: Which AC50 [13] does the source give for `C[C@H](CO)N1C[C@H](C)[C@H](CN(C)C(=O)Nc2ccccc2)OCCCC[C@H](C)Oc2ccc(NC(=O)Nc3ccc4c(c3)OCO4)cc2C1=O` here?
Answer: > 52 µM (inactive)

Question: And the AC50 [14]?
Answer: 36.6 µM (active)

Question: And the AC50 [15]?
Answer: 25.4 µM (active)

Question: Which CC50 [16] does the source give for `CC(C)(C)OC(=O)Nc1nc2ccc(C(=O)Nc3ccnc(Br)c3)cc2s1` here?
Answer: > 300 µM (inactive)
